As a reminder, the EC50 is the concentration giving half of the maximal effect. In general, AC50 refers to the concentration at which the activity in the assay is half-maximal. Broadly, the CC50 is the concentration giving 50% cytotoxicity. The GI50 is the concentration giving 50% growth inhibition.

The source made the active and inactive calls.

Results on twelve compounds are retold here after ChEMBL document CHEMBL1201862, “PubChem BioAssay data set” (2004).

Assay [1] has as its target Protein-tyrosine kinase 2-beta (Homo sapiens, UniProt Q14289).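 Also: potency of inhibitors of PYK2 kinase phosphorylation of poly-GT substrate.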
In assay [2] the target is T1, NADPH oxidase 1 (Homo sapiens, UniProt Q9Y5S8).
T1 sequence (Q9Y5S8 whole entry): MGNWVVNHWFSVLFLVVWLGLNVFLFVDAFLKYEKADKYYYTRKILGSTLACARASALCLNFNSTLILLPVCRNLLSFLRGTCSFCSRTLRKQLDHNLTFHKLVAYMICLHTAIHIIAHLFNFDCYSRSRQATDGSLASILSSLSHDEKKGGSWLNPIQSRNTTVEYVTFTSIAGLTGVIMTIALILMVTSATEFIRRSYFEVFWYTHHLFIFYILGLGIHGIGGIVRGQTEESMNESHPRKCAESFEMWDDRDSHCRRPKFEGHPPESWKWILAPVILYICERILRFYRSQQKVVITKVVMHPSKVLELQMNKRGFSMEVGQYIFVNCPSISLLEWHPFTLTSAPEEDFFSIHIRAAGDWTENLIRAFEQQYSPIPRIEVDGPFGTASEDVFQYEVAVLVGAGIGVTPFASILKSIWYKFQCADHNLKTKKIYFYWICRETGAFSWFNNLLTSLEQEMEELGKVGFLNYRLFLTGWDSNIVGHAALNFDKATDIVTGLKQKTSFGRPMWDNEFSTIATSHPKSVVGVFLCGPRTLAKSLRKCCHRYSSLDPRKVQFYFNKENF
The experiment in a line: Luminescence-based cell-based dose response assay to identify inhibitors of NADPH oxidase 1 (NOX1). The class given is functional.

The target of assay [3] is T1, NADPH oxidase 1. The experiment in a line: Late-stage luminescence-based cell-based dose response assay to identify inhibitors of NADPH oxidase 1 (NOX1): Synthesized analogs. It counts as functional.
The target in assay [4] is Lytic switch protein BZLF1 (Epstein-Barr virus (strain B95-8) (HHV-4) (Human herpesvirus 4), UniProt P03206). Briefly: inhibition of BZLF1 ZTA DNA binding – biochemical, fluorescence polarization, Epstein-Barr virus, 1536-well, counter-screen for EBNA-1 inhibitor project, dose response (AID 2377).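 Also: fluorescence polarization of Cy5-labelled ZRE DNA probe bound by purified Zta.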 Further details: species or system human gammaherpesvirus 4. On the technique in general: In fluorescence polarisation assays a small probe gives low polarisation when free and higher when bound to something large.
Chain of Lytic switch protein BZLF1 (P03206 whole entry): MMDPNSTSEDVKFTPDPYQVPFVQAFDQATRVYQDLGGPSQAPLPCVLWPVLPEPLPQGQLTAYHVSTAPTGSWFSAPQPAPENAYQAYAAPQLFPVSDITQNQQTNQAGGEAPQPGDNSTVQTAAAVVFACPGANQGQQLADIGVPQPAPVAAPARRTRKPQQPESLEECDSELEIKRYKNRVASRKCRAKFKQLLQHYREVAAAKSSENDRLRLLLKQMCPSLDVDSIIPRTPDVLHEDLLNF

Assay [5] addresses Epstein-Barr nuclear antigen 1 (Epstein-Barr virus (strain B95-8) (HHV-4) (Human herpesvirus 4), UniProt P03211). Briefly: inhibition of EBV nuclear antigen 1 DNA binding – biochemical, fluorescence polarization, 1536-well, dose response (AID 2381).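 Also: fluorescence polarization of a Cy5 DNA probe bound by EBNA-1 protein.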 Further details: species or system human gammaherpesvirus 4.
The target of assay [6] is T2, Bcl-2-related protein A1 (Mus musculus, UniProt Q07440).
T2 sequence (Q07440 whole entry): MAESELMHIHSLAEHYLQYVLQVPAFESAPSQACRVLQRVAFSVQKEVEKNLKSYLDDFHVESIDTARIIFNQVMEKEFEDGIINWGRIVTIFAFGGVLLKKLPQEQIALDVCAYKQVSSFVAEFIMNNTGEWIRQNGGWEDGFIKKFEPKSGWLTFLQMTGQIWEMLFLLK
Briefly: Bfl-1 binding inhibitors, SAR follow-up, biochemical, fluorescence polarization (AID 1070).

In assay [7] the target is Glyceraldehyde-3-phosphate dehydrogenase (Homo sapiens, UniProt P04406).
Chain of Glyceraldehyde-3-phosphate dehydrogenase (P04406 whole entry): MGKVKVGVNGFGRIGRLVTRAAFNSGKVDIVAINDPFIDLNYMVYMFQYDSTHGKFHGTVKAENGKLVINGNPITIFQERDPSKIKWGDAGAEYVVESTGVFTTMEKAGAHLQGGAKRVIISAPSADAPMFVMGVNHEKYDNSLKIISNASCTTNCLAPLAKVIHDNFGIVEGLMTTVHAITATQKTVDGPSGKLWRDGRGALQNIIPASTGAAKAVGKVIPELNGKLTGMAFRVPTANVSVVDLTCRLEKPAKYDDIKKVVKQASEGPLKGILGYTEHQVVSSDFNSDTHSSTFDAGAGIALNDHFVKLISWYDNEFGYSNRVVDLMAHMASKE
Assay [8] concerns the target T2, Bcl-2-related protein A1. The experiment in a line: small-molecule antagonists of Bfl-1/BH3 interaction – biochemical, TR-FRET, mouse Bfl-1, confirmation (AID 621).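 Also: TR-FRET binding of GST-Bfl-1 to FITC-labelled Bid peptide via terbium antibody.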
The target in the next assay is Ion channel NompC (Danio rerio, UniProt Q7T1G6). The experiment in a line: Fluorescence counterscreen assay for TRPML3 agonists: dose response cell-based high-throughput screening assay to identify agonists of the transient receptor potential channel N1 (TRPN1). [Related pubchem assays: 1526, 1424, 1448 ]. The class given is functional. (In general: The purpose of a counterscreen is to sort out artefacts and off-target activity.)

Assay [9] deals with T3, Polyadenylate-binding protein 1 (Homo sapiens, UniProt P11940). Briefly: MLLE domain peptide-binding blockers, IC50 – biochemical, fluorescence polarization, FITC-PAM2 peptide, dose response (AID 602259). The class given is functional. To be noted: read-out: IC50_Mean.
T3 sequence (P11940 whole entry, the tested form may be a part): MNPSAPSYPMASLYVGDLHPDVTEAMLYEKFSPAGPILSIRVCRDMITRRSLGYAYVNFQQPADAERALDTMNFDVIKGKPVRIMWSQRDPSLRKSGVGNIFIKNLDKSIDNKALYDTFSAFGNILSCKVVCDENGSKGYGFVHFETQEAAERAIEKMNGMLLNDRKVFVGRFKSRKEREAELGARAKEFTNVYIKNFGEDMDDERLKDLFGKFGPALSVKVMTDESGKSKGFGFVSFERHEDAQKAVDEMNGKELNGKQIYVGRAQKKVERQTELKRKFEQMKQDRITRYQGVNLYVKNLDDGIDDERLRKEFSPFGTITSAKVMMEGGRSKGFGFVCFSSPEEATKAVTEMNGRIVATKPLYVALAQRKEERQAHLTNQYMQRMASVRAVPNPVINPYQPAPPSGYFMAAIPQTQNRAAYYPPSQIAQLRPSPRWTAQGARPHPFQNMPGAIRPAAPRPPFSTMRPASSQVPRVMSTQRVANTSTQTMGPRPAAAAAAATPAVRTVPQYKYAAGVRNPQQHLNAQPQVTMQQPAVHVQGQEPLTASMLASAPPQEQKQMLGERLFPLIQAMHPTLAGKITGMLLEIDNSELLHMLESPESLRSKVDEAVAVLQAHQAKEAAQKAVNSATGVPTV
Assay [10] has as its target T3, Polyadenylate-binding protein 1. Briefly: MLLE binding blockers, Cy5 peptide tracer – biochemical, fluorescence polarization, Cy5-PAM2 peptide, secondary, miRNA deadenylation inhibitor project, dose response (AID 602260). The class given is functional. To be noted: read-out: IC50_Mean.
The target in the next assay is Mucolipin-3 (Homo sapiens, UniProt Q8TDD5). The experiment in a line: Dose response cell-based high-throughput screening assay for agonists of the transient receptor potential channel ML3 (TRPML3). [Related pubchem assays: 1526, 1424, 1448 ]. It counts as functional.
Chain of Mucolipin-3 (Q8TDD5 whole entry): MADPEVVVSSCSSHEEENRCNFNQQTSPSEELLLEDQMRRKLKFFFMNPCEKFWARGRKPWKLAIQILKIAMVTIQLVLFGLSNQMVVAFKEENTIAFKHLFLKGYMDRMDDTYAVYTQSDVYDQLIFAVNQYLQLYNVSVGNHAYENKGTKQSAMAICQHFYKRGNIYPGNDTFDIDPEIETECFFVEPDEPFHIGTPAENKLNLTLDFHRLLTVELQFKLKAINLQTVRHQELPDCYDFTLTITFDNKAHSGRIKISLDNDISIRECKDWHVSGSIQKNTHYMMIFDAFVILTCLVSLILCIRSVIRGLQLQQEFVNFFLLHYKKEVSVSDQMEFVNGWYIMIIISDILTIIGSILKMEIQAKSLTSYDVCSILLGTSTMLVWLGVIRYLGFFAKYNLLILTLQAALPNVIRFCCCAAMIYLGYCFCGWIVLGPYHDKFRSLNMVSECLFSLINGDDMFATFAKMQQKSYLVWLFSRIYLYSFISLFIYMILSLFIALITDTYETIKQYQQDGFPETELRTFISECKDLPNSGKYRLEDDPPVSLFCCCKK
A short description of assay [11]: A High Throughput Confirmatory Assay used to Identify Novel Compounds that Inhibit Mycobacterium Tuberculosis in the absence of Glycerol. It counts as functional.
The target of assay [12] is Diphosphomevalonate decarboxylase (Streptococcus pneumoniae serotype 2 (strain D39 / NCTC 7466), UniProt Q9FD53). Briefly: diphosphomevalonate decarboxylase inhibitor confirmation – biochemical, cuvette format, coupled NADH fluorescence (AID 1028). The class given is functional.
Chain of Diphosphomevalonate decarboxylase (Q9FD53 whole entry): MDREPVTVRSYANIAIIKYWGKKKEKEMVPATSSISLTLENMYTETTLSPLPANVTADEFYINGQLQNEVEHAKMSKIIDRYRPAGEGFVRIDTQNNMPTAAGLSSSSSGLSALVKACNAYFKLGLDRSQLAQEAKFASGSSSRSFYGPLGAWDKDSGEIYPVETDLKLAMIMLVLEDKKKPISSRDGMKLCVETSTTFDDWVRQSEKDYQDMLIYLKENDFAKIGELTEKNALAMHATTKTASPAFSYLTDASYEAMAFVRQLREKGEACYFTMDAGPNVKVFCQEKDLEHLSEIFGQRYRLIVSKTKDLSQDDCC
The target in assay [13] is FAD-linked sulfhydryl oxidase ALR (Homo sapiens, UniProt P55789). The experiment in a line: ALR-catalysed DTT oxidation blockers – biochemical, H2O2 detection, luminescence, cherry-pick, dose response (AID 493248).
Chain of FAD-linked sulfhydryl oxidase ALR (P55789 whole entry): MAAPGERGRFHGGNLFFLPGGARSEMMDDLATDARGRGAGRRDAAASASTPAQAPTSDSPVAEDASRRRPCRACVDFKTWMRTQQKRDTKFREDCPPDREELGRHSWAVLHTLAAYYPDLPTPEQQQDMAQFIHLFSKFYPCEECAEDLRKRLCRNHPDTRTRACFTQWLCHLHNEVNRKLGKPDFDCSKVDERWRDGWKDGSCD
Assay [14] addresses T4, Mannose-6-phosphate isomerase (Homo sapiens, UniProt P34949).
T4 sequence (P34949 whole entry): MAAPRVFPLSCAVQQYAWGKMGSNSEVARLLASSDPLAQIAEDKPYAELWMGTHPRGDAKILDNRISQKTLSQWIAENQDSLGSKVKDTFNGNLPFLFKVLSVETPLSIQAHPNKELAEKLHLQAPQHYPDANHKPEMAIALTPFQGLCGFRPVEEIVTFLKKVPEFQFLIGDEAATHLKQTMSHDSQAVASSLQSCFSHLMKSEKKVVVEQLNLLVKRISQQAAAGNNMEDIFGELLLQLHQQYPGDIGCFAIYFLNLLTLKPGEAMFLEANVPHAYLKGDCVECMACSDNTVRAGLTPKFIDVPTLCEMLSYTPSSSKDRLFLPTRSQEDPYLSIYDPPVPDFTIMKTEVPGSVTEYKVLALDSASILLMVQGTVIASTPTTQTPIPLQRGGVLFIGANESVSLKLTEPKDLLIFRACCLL
Briefly: MPI enzyme activity inhibition – biochemical, fluorescence intensity, coupled assay, primary screen (AID 1209).

The next assay concerns the target T5, Phosphomannomutase 2 (Homo sapiens, UniProt O15305).
T5 sequence (O15305 whole entry): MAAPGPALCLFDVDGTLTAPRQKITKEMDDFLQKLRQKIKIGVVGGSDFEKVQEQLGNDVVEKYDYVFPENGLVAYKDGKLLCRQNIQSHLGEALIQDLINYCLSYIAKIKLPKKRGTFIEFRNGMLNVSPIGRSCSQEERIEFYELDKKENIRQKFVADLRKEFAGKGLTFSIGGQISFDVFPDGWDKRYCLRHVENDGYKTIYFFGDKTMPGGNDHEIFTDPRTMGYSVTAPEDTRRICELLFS
The experiment in a line: Counter screen SAR assay for PMM2 inhibitors via a fluorescence intensity assay. [Related pubchem assays (depositor defined):AID1545, AID1574].

The target in assay [15] is T4, Mannose-6-phosphate isomerase. The experiment in a line: phosphomannose isomerase inhibition – biochemical, fluorescence intensity, confirmation (AID 1535).
Assay [16] deals with DNA dC->dU-editing enzyme APOBEC-3A (Homo sapiens, UniProt P31941). Briefly: A3A deaminase inhibition for selectivity – biochemical, dose response (AID 504722). The class given is functional.
Chain of DNA dC->dU-editing enzyme APOBEC-3A (P31941 whole entry): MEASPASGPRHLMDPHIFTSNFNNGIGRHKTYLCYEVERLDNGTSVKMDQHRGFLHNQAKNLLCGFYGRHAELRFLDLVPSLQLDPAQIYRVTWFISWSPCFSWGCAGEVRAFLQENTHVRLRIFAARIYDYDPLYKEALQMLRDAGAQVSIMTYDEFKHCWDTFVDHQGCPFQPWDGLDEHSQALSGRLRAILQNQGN
Assay [17] addresses DNA dC->dU-editing enzyme APOBEC-3G (Homo sapiens, UniProt Q9HC16). Briefly: Dose Response confirmation of small molecule APOBEC3G DNA Deaminase Inhibitors via a fluorescence-based single-stranded DNA deaminase assay. [Related pubchem assays (depositor defined):AID493012, AID493028]. The class given is functional.
Assay [18] deals with T1, NADPH oxidase 1. It counts as functional, cell-based.
The target in assay [19] is Mitochondrial peptide methionine sulfoxide reductase (Bos taurus, UniProt P54149). The class given is functional.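 Also: absorbance read-out, biochemical high-throughput dose-response screen for MsrA inhibitors, confirmatory; recombinant bovine MsrA coupled to E. coli TrxB with NADPH and selenocystamine; potency is for inhibitors of MsrA activity on DMSO substrate.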
Chain of Mitochondrial peptide methionine sulfoxide reductase (P54149 whole entry, the tested form may be a part): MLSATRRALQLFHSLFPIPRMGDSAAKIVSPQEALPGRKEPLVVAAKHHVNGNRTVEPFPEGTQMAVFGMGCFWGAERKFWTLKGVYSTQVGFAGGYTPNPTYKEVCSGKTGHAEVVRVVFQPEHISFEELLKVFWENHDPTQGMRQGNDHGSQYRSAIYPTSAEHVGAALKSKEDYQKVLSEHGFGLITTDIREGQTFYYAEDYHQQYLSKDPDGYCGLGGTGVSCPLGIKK
Assay [20] deals with T6, Carboxy-terminal domain RNA polymerase II polypeptide A small phosphatase 1 (Homo sapiens, UniProt Q9GZU7).
T6 sequence (Q9GZU7 whole entry): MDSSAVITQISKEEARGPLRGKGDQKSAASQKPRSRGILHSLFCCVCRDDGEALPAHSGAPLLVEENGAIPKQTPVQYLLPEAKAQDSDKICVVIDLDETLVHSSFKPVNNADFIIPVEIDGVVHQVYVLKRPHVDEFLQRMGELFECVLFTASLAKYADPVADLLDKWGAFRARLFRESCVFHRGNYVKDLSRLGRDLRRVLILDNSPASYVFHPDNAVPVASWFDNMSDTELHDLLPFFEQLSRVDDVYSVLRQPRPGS
Briefly: CTDSP1 inhibitors, concentration-response, biochemical, absorbance readout, ultra-high-throughput screen actives (AID 540297). It counts as functional.

The target in assay [21] is Aryl hydrocarbon receptor (Homo sapiens, UniProt P35869). Briefly: Luminescence-based cell-based high throughput dose response assay for activators of the Aryl Hydrocarbon Receptor (AHR). [Related pubchem assays: 2796 (Primary screen (AHR activators in singlicate)), 2845 (Confirmation screen (AHR activators in triplicate)), 434939 (Counterscreen (PXR activators in triplicate)), 2804 (Summary (AHR activators))]. The class given is ADME.

Assay [22] is described as follows: NIH3T3 cell viability loss – ATP luminescence, mouse fibroblasts, counter-screen, dose response (AID 2010).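 Also: cells exposed to compound for about 90 hours before reading.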 The class given is functional, cell-based.
A short description of assay [23]: Trypanosoma cruzi growth suppression in host cells – NIH3T3 host cells, beta-gal luminescence, confirmation (AID 2044).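 Also: intracellular parasites grown in NIH/3T3 mouse fibroblasts as host cells; luminescent beta-galactosidase reporter signal from transgenic T. cruzi replicating inside host cells; inhibitors lower the luminescence signal.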 The class given is functional, cell-based.
Assay [24] can be described thus: viability loss in THP-1 monocytes – THP-1 cells, cytotoxicity control for Vif-APOBEC3G degradation inhibitor project, dose response (AID 1117359). It counts as functional. To be noted: THP-1.
Another assay deals with P388. The experiment in a line: cells. The class given is functional. To be noted: Mus musculus, P388.
The target of assay [25] is T4, Mannose-6-phosphate isomerase. The experiment in a line: MPI inhibition at elevated mannose 6-phosphate – biochemical, fluorescence intensity, high mannose 6-phosphate, primary screen (AID 1220).
A short description of assay [26]: Luminescence-based dose response cell-based high throughput screening assay for cytotoxic compounds using the IEC-6 intestinal epithelial cell line. [Related pubchem assays: 1858 (Summary AID.), 1825 (Counterscreen.), 1907 (Confirmation screen.)]. The class given is functional.
The test system of a further assay is SN12K1. The experiment in a line: cells. It counts as functional. To be noted: Homo sapiens.
The subject of another assay is P388/ADR. The experiment in a line: cells. It counts as functional. To be noted: Mus musculus, P388/ADR.

Chain of DNA dC->dU-editing enzyme APOBEC-3G (Q9HC16 whole entry): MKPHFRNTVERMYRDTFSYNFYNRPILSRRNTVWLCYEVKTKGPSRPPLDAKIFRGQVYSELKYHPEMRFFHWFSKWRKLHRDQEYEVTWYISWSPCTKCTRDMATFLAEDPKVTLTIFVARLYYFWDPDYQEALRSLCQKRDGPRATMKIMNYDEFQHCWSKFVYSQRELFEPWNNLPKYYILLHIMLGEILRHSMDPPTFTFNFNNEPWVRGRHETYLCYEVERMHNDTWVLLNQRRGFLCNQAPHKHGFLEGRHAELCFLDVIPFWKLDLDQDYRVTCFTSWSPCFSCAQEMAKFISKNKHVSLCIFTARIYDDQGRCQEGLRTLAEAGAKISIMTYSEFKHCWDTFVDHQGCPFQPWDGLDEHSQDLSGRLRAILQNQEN
Chain of Protein-tyrosine kinase 2-beta (Q14289 whole entry): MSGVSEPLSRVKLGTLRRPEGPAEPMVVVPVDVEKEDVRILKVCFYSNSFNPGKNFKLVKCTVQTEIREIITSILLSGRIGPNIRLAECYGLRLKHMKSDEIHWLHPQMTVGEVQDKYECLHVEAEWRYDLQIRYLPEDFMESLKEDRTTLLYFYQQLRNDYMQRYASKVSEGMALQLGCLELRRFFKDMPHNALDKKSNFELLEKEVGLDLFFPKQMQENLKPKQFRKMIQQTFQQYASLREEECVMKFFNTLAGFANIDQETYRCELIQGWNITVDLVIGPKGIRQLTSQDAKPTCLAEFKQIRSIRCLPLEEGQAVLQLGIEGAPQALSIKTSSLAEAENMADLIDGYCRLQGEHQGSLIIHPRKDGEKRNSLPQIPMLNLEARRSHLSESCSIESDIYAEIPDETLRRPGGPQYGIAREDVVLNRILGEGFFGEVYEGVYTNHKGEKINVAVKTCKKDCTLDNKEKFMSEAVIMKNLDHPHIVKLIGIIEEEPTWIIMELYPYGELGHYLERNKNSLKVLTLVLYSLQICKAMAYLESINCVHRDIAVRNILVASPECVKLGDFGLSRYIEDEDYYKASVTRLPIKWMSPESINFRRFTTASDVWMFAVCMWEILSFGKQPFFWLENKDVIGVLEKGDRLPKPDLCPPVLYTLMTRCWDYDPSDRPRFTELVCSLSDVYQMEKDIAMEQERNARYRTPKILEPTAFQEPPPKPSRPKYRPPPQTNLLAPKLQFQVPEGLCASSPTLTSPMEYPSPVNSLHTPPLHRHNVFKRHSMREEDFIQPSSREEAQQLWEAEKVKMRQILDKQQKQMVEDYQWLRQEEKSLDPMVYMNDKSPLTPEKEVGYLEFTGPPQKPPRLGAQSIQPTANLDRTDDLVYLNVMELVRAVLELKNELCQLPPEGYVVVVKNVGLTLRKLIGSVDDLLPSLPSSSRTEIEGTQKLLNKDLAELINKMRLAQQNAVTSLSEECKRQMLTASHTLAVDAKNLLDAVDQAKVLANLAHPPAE
Chain of Epstein-Barr nuclear antigen 1 (P03211 whole entry): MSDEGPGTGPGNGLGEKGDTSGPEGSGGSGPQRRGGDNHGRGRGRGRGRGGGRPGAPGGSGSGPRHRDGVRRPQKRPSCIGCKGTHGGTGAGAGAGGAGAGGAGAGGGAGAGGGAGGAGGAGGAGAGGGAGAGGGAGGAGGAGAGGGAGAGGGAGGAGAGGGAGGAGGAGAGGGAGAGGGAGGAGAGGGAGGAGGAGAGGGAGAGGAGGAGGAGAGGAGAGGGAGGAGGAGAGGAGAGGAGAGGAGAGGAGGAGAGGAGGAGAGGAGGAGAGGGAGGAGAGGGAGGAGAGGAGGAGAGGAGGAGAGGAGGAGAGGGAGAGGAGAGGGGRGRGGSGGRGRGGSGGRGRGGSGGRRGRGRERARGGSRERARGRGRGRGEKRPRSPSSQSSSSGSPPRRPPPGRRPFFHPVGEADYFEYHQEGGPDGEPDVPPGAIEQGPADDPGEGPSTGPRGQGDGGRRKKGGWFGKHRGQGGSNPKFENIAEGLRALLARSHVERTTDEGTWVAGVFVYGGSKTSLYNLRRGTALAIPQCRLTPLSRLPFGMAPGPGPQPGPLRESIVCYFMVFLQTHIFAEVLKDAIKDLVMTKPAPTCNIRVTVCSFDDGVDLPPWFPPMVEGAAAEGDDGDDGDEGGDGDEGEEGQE

As for `N#Cc1cnn2c1nc(N1CCOCC1)c1ccccc12`, the IC50 in assay [1] was > 69.5 µM (not active).
On to `O=S1(=O)c2ccccc2Nc2ccccc21`, for which the IC50 at NADPH oxidase 1 [2] was 6.6 µM (active); against NADPH oxidase 1 [3] it was > 50 µM (not active).
In the case of `Cc1ccccc1OCCn1cc(/C=C(\C#N)C(=O)NCc2ccco2)c2ccccc21`, the IC50 in assay [4] is given as > 111 µM (not active); in assay [5], 39.9 µM (not active).
For the compound `O=C1C(Cl)=C(N2CCOCC2)C(=O)N1c1ccc(Cl)nc1`, the figures for the IC50 (at Bcl-2-related protein A1 [6]; in assay [7]; at Bcl-2-related protein A1 [8]) were 12.6 µM (active), > 100 µM (not active) and 15.1 µM (active), respectively.
On to `O=C1C(Cl)=C(N2CCN(Cc3ccccc3)CC2)C(=O)N1Cc1ccccc1`, for which the EC50 on Ion channel NompC was > 29.9 µM (not active); on Mucolipin-3, 5.29 µM (active). The IC50 in assay [9] and in assay [10] was > 66 µM (inactive) each time.
`CCc1nc2ccccc2c(C(=O)Nc2cc(C)ccc2C)c1C`: in assay [11], the IC50 is > 100 µM (active).
Turning to `CN(C)C(=O)c1ccc(-n2sc3ccccc3c2=O)cc1`, the IC50 in assay [12] was 21.9 µM (active).
Consider `COc1ccc(-c2n[nH]c(=S)[nH]2)cc1OC`, for which the AC50 in [13] is 0.011 µM (active). The IC50 is 8.55 µM (active) in assay [14]; > 100 µM (inactive) at Phosphomannomutase 2; 29 µM (active) in assay [15]; > 100 µM (inactive) in [16]; 3.45 µM (active) in assay [17].
As to `O=[N+]([O-])c1cccc(-c2nc(-c3ccccc3)c(-c3ccccc3)[nH]2)c1`, at NADPH oxidase 1 [18], the IC50 is > 17 µM (not active).
Regarding `O=C(N/N=C/c1ccco1)c1ccc(C(=O)N/N=C/c2ccco2)o1`, the results for the IC50 in assay [19] and in [20] were 114 µM (inactive) and 4.92 µM (active), respectively. Moreover, the EC50 in [21] was 5.21 µM (active).
As for `CCCCc1c(CCC)c(=N)c2ccccc2n1C`, the EC50 in [22] is > 60 µM (inconclusive); in assay [23], < 0.1 µM (active); in “cells”, 0.017 µM (active).
For `COC1=C(N)C(=O)c2nc(-c3nc(C(=O)O)c(C)c(-c4ccc(OC)c(OC)c4O)c3N)ccc2C1=O` [STREPTONIGRIN], the CC50 in assay [24] is 2.96 µM (active). Also, the GI50 in the assay with P388 was 0.0352 µM (active); in the assay with SN12K1 it was < 0.01 µM (active); with P388/ADR, 0.0287 µM (active). The results for the IC50 in assay [25] and in assay [26] were > 50 µM (not active) and 0.0094 µM (active), respectively.
